Results reported in patent US20230193181A1, “3D Tissue Printing” (Oxford University Innovation Limited, priority 2020, published 2023).
“Also recorded” adds a separate entry of the source.

What was measured:
[1] = reported in clinic; cited from earlier work
[2] = tested on: printed neural tissue arrays (astrocytes and RFP-NPCs in Matrigel); test: Neurotoxicity test using printed neural tissue arrays
Method: FIG. 20a, The experimental process of drug testing using printed neural tissue arrays. From left to right: 2D cultured astrocytes and RFP-NPCs were harvested and added to Matrigel for the preparation of bio-ink with a cell density ratio of 3:1 (astrocytes vs RFP-NPCs) and total cell density of 4×10^7 mL^−1. The prepared bio-ink were printed into droplet arrays with individual droplet size around 100 μm. On the next day, cancer chemotherapy drugs were added to the culture medium. The neurotoxicity of the drugs were assessed after a further 24 hrs. FIG. 20b, Fluorescent images of neural tissues treated with DMSO (control) and cancer chemotherapy drugs with different reported neurotoxicity risks: 5-Fluorouracil (minor), Carboplatin (moderate), Taxol (high). […] FIG. 20c, Comparison of the neurotoxicity of different chemotherapy drugs.
Neurotoxicity of cancer chemotherapy drugs occurs frequently in clinic and often limit the dose of chemotherapy. We tested three chemotherapy drugs that are reported in clinic with low, moderate and high risks of neurotoxicity, using printed droplet arrays containing neural tissues (astrocytes and NSCs in Matrigel).

RFP-hNSCs = test: Toxicity test of DPhPC on hNSCs; assay type: cell-based, human; conditions: DPhPC at 100 μg/mL or 400 μg/mL in neural maintenance medium; three days of culture
Method: RFP-hNSCs were cultured in neural maintenance medium containing no lipid (control) or DPhPC at either 100 μg/mL or 400 μg/mL. Arrows indicate the formation of neural rosette-like structures under all conditions after three days of culture.

printed neural tissues = test: Fluo-4 calcium imaging of printed neural tissues after KCl stimulation; assay type: cell-based, human; conditions: KCl 60 mM, 65 days ppd
Description: FIG. 3d-f show spontaneous calcium oscillations (FIG. 3d), single-cell traces (FIG. 3e) and correlation coefficient analysis (FIG. 3f) of printed neural tissues at 44 days ppd. The data reveal increased neural communication after a longer period of differentiation. […] Intensities are false-coloured according to the ‘fire’ Look Up Table of Fiji. […] Images are false-coloured as in FIG. 3g. Scale bars are all 100 μm.
Calcium imaging and correlation analysis. A Fluo-4 Direct™ calcium assay kit (F10471, Invitrogen) was used according to the manufacturer's instructions to measure calcium activities. Briefly, printed neural tissues were transferred to 48-well plates and incubated with NMM/Fluo-4 calcium imaging reagents (v:v, 1:1) for 1 h at 37° C. Both spontaneous and evoked calcium recordings were recorded at 37° C. by fluorescence confocal microscopy (Leica SP5) at 1 frame per 2 seconds for FIG. 3a, 1 frame per 15 seconds FIG. 3d and 1 frame per 1 second for FIG. 3g. Pre-processing and analysis of time-lapse calcium recordings were performed in MATLAB. […] Individual neuronal somata were manually selected as ROIs, and the pixel mask in the local area was refined using ICA-based de-mixing of fluorescent transients. ΔF/F0 at time t was calculated with a moving baseline as: […]

[3] = tested on: Astrocytes in droplet arrays; test: Fluo-4 calcium live imaging of astrocytes in droplet arrays after KCl stimulation; assay type: cell-based, human; conditions: KCl 60 mM
Method: FIG. 19a, human primary cortical astrocyte printed in an array. Astrocytes were printed at a cell density of 4×10^7 mL^−1 in Matrigel. Left: Calcein AM (CAM) staining of printed astrocytes at 2 days post printing. The dashed box indicates the area of the higher magnification image on the right (top two images in the middle). Top right row: higher magnification images of astrocyte printed in Matrigel (CAM staining image and the corresponding brightfield image) and image of astrocytes (brightfield with CAM staining) printed in agarose as the matrix. Bottom right row: immunostaining images of printed astrocytes with astrocyte markers vimentin (yellow) and GFAP (magenta). FIG. 19b, Spontaneous calcium fluctuations of astrocytes in printed droplet arrays. Left: Individual time-point frames of Fluo-4 calcium live imaging. Right: single-cell traces of the cells indicated by the colour-coded circles in the images (left panel). […] Proportions of astrocytes with spontaneous calcium fluctuations were measured at four conditions: 2D monolayer cell culture, and printed astrocyte, astrocyte-NPC, and astrocyte-MDA (a metastatic breast cancer cell line) droplet arrays. n>20 for all four conditions. *: P<0.05, **: P<0.01, ***: P<0.001 and ****: P<0.0001. […]

iPSCs derived NPCs = test: Oil toxicity test using iPSCs derived NPCs; assay type: cell-based; conditions: oil on top of medium of 2D cultured NPCs, 5 days; live (CAM)/dead (PI) staining on day 5
Method: 2D cultured NPCs were added with oil on top of medium and cultured for 5 days. Life (CAM, in green) and Dead (PI, in read) staining were conducted on day 5.
Bioreactors have been used in macro-scale to support biological active environment. However, nanoliter-sized bioreactors would offer the potential to study biological events with much small number of cells, and the potential application in high throughput assays. We firstly optimised the oil surrounding the nano-bioreactors, which plays a large role in the viability of the encapsulated neural tissues. […] The optimised conditions allow the growth of individual low-nanoliter sized neural tissue inside each nano-bioreactor, without interaction with cells in other nano-bioreactors. With differentiation medium, neural process outgrowth and neural migration were observed and assessed in nano-bioreactors. This technique have the potential for a low-cost HTS, as minimal cells and reagents are required. It also offers the potential application to study biological events where a small organised cluster of cells were involved, such as early stage embryogenesis and tumorigenesis.

**Q.** Which reported neurotoxicity risk [1] does the source give for `O=c1[nH]cc(F)c(=O)[nH]1` [5-Fluorouracil] here?
**A.** The reported neurotoxicity risk was “minor”.

**Q.** Which reported neurotoxicity risk [1] does the source give for `N.N.O=C([O-])C1(C(=O)[O-])CCC1.[Pt+2]` [Carboplatin] here?
**A.** The reported neurotoxicity risk was “moderate”.

**Q.** What about the “neurotoxicity against neural cells in printed neural tissue arrays” value ([2]; drugs added to culture medium the day after printing, assessed after a further 24 hrs, astrocytes:RFP-NPCs 3:1, n>25, P<0.05) of the same molecule?
**A.** The value was “higher toxicity against neural cells compared to 5-Fluorouracil”.

**Q.** Which “toxicity of DPhPC on hNSCs (neural rosette-like structure formation vs no-lipid control)” value (RFP-hNSCs) does the source give for `CC(C)CCCC(C)CCCC(C)CCCC(C)CC(=O)OC[C@H](COP(=O)([O-])OCC[N+](C)(C)C)OC(=O)CC(C)CCCC(C)CCCC(C)CCCC(C)C` (stereo partly drawn) [DPhPC, 1,2-diphytanoyl-sn-glycero-3-phosphocholine] here?
**A.** Its value is “No obvious differences”.

**Q.** For `[Cl-].[K+]` [KCl], which “calcium response of printed neural tissues to KCl” value (printed neural tissues) is on record?
**A.** The value was “induced a rapid calcium transient in a cell; also recorded: evoked rapid Ca^2+ transients”.

**Q.** And the “calcium response of astrocytes in droplet arrays to KCl stimulation” value [3]?
**A.** Its value is “responsive”.

**Q.** Which reported neurotoxicity risk [1] does the source give for `CC(=O)O[C@H]1C(=O)[C@@]2(C)[C@H]([C@H](OC(=O)c3ccccc3)[C@]3(O)C[C@H](OC(=O)[C@H](O)[C@@H](NC(=O)c4ccccc4)c4ccccc4)C(C)=C1C3(C)C)[C@]1(OC(C)=O)CO[C@@H]1C[C@@H]2O` [Taxol] here?
**A.** The reported neurotoxicity risk was “high”.

**Q.** What about the “neurotoxicity against neural cells in printed neural tissue arrays” value ([2]; human, 24 h) of the same molecule?
**A.** Its value is “higher toxicity against neural cells compared to 5-Fluorouracil”.

**Q.** With `CCCCCCCC/C=C\CCCCCCCC(=O)OCC(COC(=O)CCCCCCC/C=C\CCCCCCCC)OC(=O)CCCCCCC/C=C\CCCCCCCC` [glyceryl trioleate] as the molecule, how does the “oil toxicity to NPCs” value (iPSCs derived NPCs) read?
**A.** Its value is “not toxic”.
